Results as given in PubChem BioAssay AID330 (DTP/NCI, 2004).
Several values for one entry are separate records, joined by “and”; a condition that tells them apart may be missing. Equal values may be shown once. Toxic doses and inconclusive results are not listed.

Tested on: P388 leukemia ip, CD2F1 mice, survival T/C
Assay: NCI In Vivo Anticancer Drug Screen. Data for tumor model P388 Leukemia (intraperitoneal) in CD2F1 (CDF1) mice
Conditions: endpoint: median survival time, higher = longer survival
How it was run: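 Mice carrying the transplanted tumor received test compound or vehicle. Survival was recorded in each group, and the value is the treated-group measurement divided by that of the vehicle-treated control group.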

[1] = dose: 12.5 mg/kg/injection, schedule: Q01DX009 (ip), vehicle: distilled water + Tween-80
[2] = dose: 25.0 mg/kg/injection, schedule: Q01DX009 (ip), vehicle: distilled water + Tween-80
[3] = dose: 50.0 mg/kg/injection, schedule: Q01DX009 (ip), vehicle: distilled water + Tween-80
[4] = dose: 100.0 mg/kg/injection, schedule: Q01DX009 (ip), vehicle: distilled water + Tween-80
[5] = dose: 50.0 mg/kg/injection, schedule: Q04DX003 (ip), vehicle: saline with Tween-80
[6] = dose: 100.0 mg/kg/injection, schedule: Q04DX003 (ip), vehicle: saline with Tween-80
[7] = dose: 200.0 mg/kg/injection, schedule: Q04DX003 (ip), vehicle: saline with Tween-80
[8] = dose: 12.5 mg/kg/injection, schedule: Q01DX009 (ip), vehicle: saline with Tween-80
[9] = dose: 25.0 mg/kg/injection, schedule: Q01DX009 (ip), vehicle: saline with Tween-80
[10] = dose: 50.0 mg/kg/injection, schedule: Q01DX009 (ip), vehicle: saline with Tween-80
[11] = dose: 60.0 mg/kg/injection, schedule: Q01DX005 (ip), vehicle: saline with Tween-80
[12] = dose: 100.0 mg/kg/injection, schedule: Q01DX005 (ip), vehicle: Klucel (hydroxypropylcellulose) (HPC)
[13] = dose: 50.0 mg/kg/injection, schedule: Q01DX005 (ip), vehicle: Klucel (hydroxypropylcellulose) (HPC)
[14] = dose: 200.0 mg/kg/injection, schedule: Q01DX005 (ip), vehicle: Klucel (hydroxypropylcellulose) (HPC)
[15] = dose: 100.0 mg/kg/injection, schedule: Q01DX009 (ip), vehicle: saline with Tween-80
[16] = dose: 200.0 mg/kg/injection, schedule: Q01DX009 (ip), vehicle: saline with Tween-80

Cc1ccc(S(=O)(=O)NC(=O)Nc2nccs2)cc1
T/C [1]: 99 % of control | T/C [2]: 92 % of control | T/C [3]: 97 % of control | T/C [4]: 106 % of control | T/C (dose: 200.0 mg/kg/injection, schedule: Q01DX009 (ip), vehicle: distilled water + Tween-80): 99 % of control

NC(N)=N/N=C/c1c2ccccc2cc2ccccc12
T/C (dose: 6.25 mg/kg/injection, schedule: Q01DX005 (ip), vehicle: saline with Tween-80): 100 % of control and 101 % of control | T/C (dose: 12.5 mg/kg/injection, schedule: Q01DX005 (ip), vehicle: saline with Tween-80): 107 % of control and 109 % of control and 121 % of control | T/C (dose: 25.0 mg/kg/injection, schedule: Q01DX005 (ip), vehicle: saline with Tween-80): 104 % of control and 113 % of control and 121 % of control

CC(=N\O)/C(=N/O)c1ccccc1
T/C [5]: 106 % of control | T/C [6]: 98 % of control | T/C [7]: 98 % of control | T/C (dose: 400.0 mg/kg/injection, schedule: Q04DX003 (ip), vehicle: saline with Tween-80): 104 % of control

Clc1c(CBr)ccc(CBr)c1Cl
T/C [8]: 100 % of control | T/C [9]: 100 % of control | T/C [10]: 115 % of control

O=C1C2=C(CCC2)C(=O)N1c1ccc(N2C(=O)C3=C(CCC3)C2=O)cc1
T/C (dose: 1.56 mg/kg/injection, schedule: Q01DX009 (ip), vehicle: distilled water + Tween-80): 101 % of control | T/C (dose: 3.13 mg/kg/injection, schedule: Q01DX009 (ip), vehicle: distilled water + Tween-80): 102 % of control | T/C (dose: 6.25 mg/kg/injection, schedule: Q01DX009 (ip), vehicle: distilled water + Tween-80): 100 % of control | T/C [1]: 99 % of control | T/C [2]: 107 % of control | T/C [3]: 103 % of control | T/C [4]: 119 % of control

CSc1nc(C(N)=O)cc(=O)[nH]1
T/C (dose: 3.12 mg/kg/injection, schedule: Q01DX009 (ip), vehicle: Klucel (hydroxypropylcellulose) (HPC)): 104 % of control | T/C (dose: 6.25 mg/kg/injection, schedule: Q01DX009 (ip), vehicle: Klucel (hydroxypropylcellulose) (HPC)): 104 % of control | T/C (dose: 12.5 mg/kg/injection, schedule: Q01DX009 (ip), vehicle: Klucel (hydroxypropylcellulose) (HPC)): 104 % of control and 106 % of control | T/C (dose: 25.0 mg/kg/injection, schedule: Q01DX009 (ip), vehicle: Klucel (hydroxypropylcellulose) (HPC)): 105 % of control | T/C (dose: 50.0 mg/kg/injection, schedule: Q01DX009 (ip), vehicle: Klucel (hydroxypropylcellulose) (HPC)): 92 % of control

CCC[CH2][Ge](=[O])[CH2]CCC
T/C (dose: 50.0 mg/kg/injection, schedule: Q01DX009 (ip), vehicle: saline): 103 % of control | T/C (dose: 100.0 mg/kg/injection, schedule: Q01DX009 (ip), vehicle: saline): 102 % of control | T/C (dose: 200.0 mg/kg/injection, schedule: Q01DX009 (ip), vehicle: saline): 88 % of control

CCO/C(=C\C(=O)c1ccccc1)c1ccccc1
T/C [5]: 100 % of control | T/C [6]: 100 % of control | T/C [7]: 100 % of control

O=C(O)CCC(NC(=O)c1ccc(N(CCCO)CC2CNc3nc(NCCCO)[nH]c(=O)c3N2CCCO)cc1)C(=O)O (configuration not stated)
T/C (dose: 50.0 mg/kg/injection, schedule: Q04DX003 (ip), vehicle: alkali diluted with saline): 98 % of control | T/C (dose: 100.0 mg/kg/injection, schedule: Q04DX003 (ip), vehicle: alkali diluted with saline): 109 % of control | T/C (dose: 200.0 mg/kg/injection, schedule: Q04DX003 (ip), vehicle: alkali diluted with saline): 98 % of control

CN1C2=CC=CC=CC2=[N+](C)C1C(=C=[N-])C#N (configuration not stated)
T/C (dose: 15.0 mg/kg/injection, schedule: Q01DX005 (ip), vehicle: saline with Tween-80): 104 % of control | T/C (dose: 30.0 mg/kg/injection, schedule: Q01DX005 (ip), vehicle: saline with Tween-80): 107 % of control | T/C [11]: 107 % of control and 115 % of control

CC1CN=C(CCc2ccc(NC(=O)c3ccc(C(=O)Nc4ccc(CCC5=NCC(C)N5)cc4)cc3)cc2)N1 (configuration not stated)
T/C (dose: 12.5 mg/kg/injection, schedule: Q01DX005 (ip), vehicle: Klucel (hydroxypropylcellulose) (HPC)): 108 % of control | T/C (dose: 25.0 mg/kg/injection, schedule: Q01DX005 (ip), vehicle: Klucel (hydroxypropylcellulose) (HPC)): 108 % of control | T/C [12]: 160 % of control

CCOC(=O)c1ccnc2ccc3ccccc3c12
T/C [13]: 105 % of control | T/C [12]: 102 % of control | T/C [14]: 96 % of control

Cc1cn(O)cc(C)c1=N
T/C [8]: 100 % of control | T/C [9]: 100 % of control | T/C [10]: 108 % of control

COc1ccc2nc(C)c(C)nc2c1Cl
T/C [13]: 98 % of control | T/C [12]: 100 % of control | T/C [14]: 95 % of control

CC(=O)SSC(C)(C)C
T/C (dose: 50.0 mg/kg/injection, schedule: Q01DX005 (ip), vehicle: saline): 105 % of control | T/C (dose: 100.0 mg/kg/injection, schedule: Q01DX005 (ip), vehicle: saline): 114 % of control | T/C (dose: 200.0 mg/kg/injection, schedule: Q01DX005 (ip), vehicle: saline): 103 % of control

COc1ccc2c(c1OC)C(CC(=O)O)N1CCc3cc4c(cc3C1C2)OCO4 (configuration not stated)
T/C (dose: 0.63 mg/kg/injection, schedule: Q01DX009 (ip), vehicle: distilled water + Tween-80): 103 % of control | T/C (dose: 1.25 mg/kg/injection, schedule: Q01DX009 (ip), vehicle: distilled water + Tween-80): 99 % of control | T/C (dose: 2.5 mg/kg/injection, schedule: Q01DX009 (ip), vehicle: distilled water + Tween-80): 106 % of control | T/C (dose: 5.0 mg/kg/injection, schedule: Q01DX009 (ip), vehicle: distilled water + Tween-80): 101 % of control | T/C (dose: 10.0 mg/kg/injection, schedule: Q01DX009 (ip), vehicle: distilled water + Tween-80): 106 % of control | T/C (dose: 20.0 mg/kg/injection, schedule: Q01DX009 (ip), vehicle: distilled water + Tween-80): 94 % of control

CCOC(=O)c1ccc(NC(=O)Oc2ccc(C(=O)OC)cc2)cc1
T/C [11]: 103 % of control | T/C (dose: 120.0 mg/kg/injection, schedule: Q01DX005 (ip), vehicle: saline with Tween-80): 100 % of control | T/C (dose: 240.0 mg/kg/injection, schedule: Q01DX005 (ip), vehicle: saline with Tween-80): 103 % of control

C=CCC1(CCC)C(=O)NC(=S)NC1=O
T/C [10]: 110 % of control | T/C [15]: 117 % of control | T/C [16]: 115 % of control

C=[CH][Sn][CH2]CCC
T/C (dose: 100.0 mg/kg/injection, schedule: Q01DX009 (ip), vehicle: Klucel (hydroxypropylcellulose) (HPC)): 112 % of control

O=C1CC2OC3C(C2O1)N(C(=O)OCc1ccccc1)C[C@H]3O (some centres not stated)
T/C (dose: 60.0 mg/kg/injection, schedule: Q01DX005 (ip), vehicle: saline): 106 % of control | T/C (dose: 120.0 mg/kg/injection, schedule: Q01DX005 (ip), vehicle: saline): 98 % of control | T/C (dose: 240.0 mg/kg/injection, schedule: Q01DX005 (ip), vehicle: saline): 105 % of control

CSC(=S)n1nc(C)c(N=Nc2ccc(F)cc2)c1C
T/C (dose: 100.0 mg/kg/injection, schedule: Q01DX001 (ip), vehicle: saline with Tween-80): 92 % of control | T/C (dose: 200.0 mg/kg/injection, schedule: Q01DX001 (ip), vehicle: saline with Tween-80): 92 % of control | T/C (dose: 400.0 mg/kg/injection, schedule: Q01DX001 (ip), vehicle: saline with Tween-80): 97 % of control

COc1ccc2ccccc2c1/C=N/N1CCCCC1
T/C [15]: 100 % of control | T/C [16]: 104 % of control | T/C (dose: 400.0 mg/kg/injection, schedule: Q01DX009 (ip), vehicle: saline with Tween-80): 95 % of control

O=C1C=CC2(O)CCCN12 (configuration not stated)
T/C (dose: 5.0 mg/kg/injection, schedule: Q01DX005 (ip), vehicle: saline): 106 % of control | T/C (dose: 10.0 mg/kg/injection, schedule: Q01DX005 (ip), vehicle: saline): 110 % of control | T/C (dose: 20.0 mg/kg/injection, schedule: Q01DX005 (ip), vehicle: saline): 118 % of control

COc1ccc(C2OC(=O)C(=O)C2=O)cc1OC (configuration not stated)
T/C (dose: 60.0 mg/kg/injection, schedule: Q01DX005 (ip), vehicle: Klucel (hydroxypropylcellulose) (HPC)): 100 % of control | T/C (dose: 120.0 mg/kg/injection, schedule: Q01DX005 (ip), vehicle: Klucel (hydroxypropylcellulose) (HPC)): 107 % of control | T/C (dose: 240.0 mg/kg/injection, schedule: Q01DX005 (ip), vehicle: Klucel (hydroxypropylcellulose) (HPC)): 105 % of control
